Source: patent US4016148A, “Peptide derivatives of phosphonic and phosphinic acids and intermediates therefor” (Hoffmann-La Roche Inc., priority 1975, dated 1977)
Residues, ends and D or L forms follow the SMILES beside them.

What was measured:
[1] = tested on: E. coli; test: Potentiation of antibiotics by the peptide derivative: MIC and fractional inhibitory concentration index against E. coli in Davis minimal medium; format: cell-based; details: for Fractional Inhibitory Concentration Index: antibiotic in combination with (1R)-1-(L-alanylamino)-ethylphosphonic acid; for Minimum Inhibitory Concentration, Antibiotic + peptide derivative: concentration of the antibiotic: in combination with (1R)-1-(L-alanylamino)-ethylphosphonic acid
From the text: The peptide derivatives provided by this invention potentiate the activity of antibiotics (e.g. penicillin and cephalosporin antibiotics and D-cycloserine). Thus, for example the fractional inhibitory concentration indices of (1R)-1-(L-alanylamino)-ethylphosphonic acid in combination with a cephalosporin, with a penicillin antibiotic and with D-cycloserine against E. coli in Davis minimal medium are given in Table 1.

[2] = tested on: E. coli; test: Fractional inhibitory concentration indices of peptide derivatives in a 2:1 ratio with D-cycloserine against E. coli in Davis minimal medium; format: cell-based; details: peptide derivative in a 2:1 ratio with D-cycloserine
From the text: Again, for example, the fractional inhibitory concentration indices of (1R)-1-(L-alanylamino)-ethylphosphonic acid (Derivative A), (1R)-1-(L-alanyl-L-alanylamino)-ethylphosphonic acid (Derivative B), (1R)-1-(L-alanyl-L-alanyl-L-alanylamino)-ethylphosphonic acid (Derivative C), (1R)-1-(L-alanyl-L-alanyl-L-alanyl-L-alanylamino)-ethylphosphonic acid (Derivative D), (1R)-1-(L-phenylalanylamino)-ethylphosphonic acid (Derivative E), (1R)-1-(L-valylamino)-ethylphosphonic acid (Derivative F) and (1R)-1-(L-leucylamino)-ethylphosphonic acid (Derivative G) in a 2:1 ratio with D-cycloserine against E. coli in Davis minimal medium are given in Table 2.

Row | Compound | Minimum Inhibitory Concentration, Antibiotic alone [1] | Fractional Inhibitory Concentration Index [1] | Minimum Inhibitory Concentration, Antibiotic + peptide derivative: concentration of the antibiotic [1] | Fractional Inhibitory Concentration Index [2] | Fractional Inhibitory Concentration of D-cycloserine [2] | also measured
1 | CC1(C)S[C@@H]2[C@H](NC(=O)[C@H](N)c3ccc(O)cc3)C(=O)N2[C@H]1C(=O)O [Amoxycillin] | 4 µg/mL | 0.3 | 1 µg/mL |  |  | 
2 | CC1=C(C(=O)O)N2C(=O)[C@@H](NC(=O)[C@H](N)C3=CCC=CC3)[C@H]2SC1 [Cephradine] | 16 µg/mL | 0.5 | 4 µg/mL |  |  | 
3 | N[C@@H]1CONC1=O [D-Cycloserine] | 64 µg/mL | 0.25 | 0.25 µg/mL |  |  | 
4 | C[C@H](N)C(=O)N[C@@H](C)P(=O)(O)O [Derivative A, (1R)-1-(L-alanylamino)-ethylphosphonic acid] |  |  |  | 0.3 | 0.06 | Minimum Inhibitory Concentration, Antibiotic + peptide derivative: concentration of the peptide derivative ([1]; in combination with Amoxycillin): 0.06 µg/mL; Minimum Inhibitory Concentration, Antibiotic + peptide derivative: concentration of the peptide derivative ([1]; in combination with Cephradine): 0.25 µg/mL; Minimum Inhibitory Concentration, Antibiotic + peptide derivative: concentration of the peptide derivative ([1]; in combination with D-Cycloserine): 0.25 µg/mL
5 | C[C@H](N)C(=O)N[C@@H](C)C(=O)N[C@@H](C)P(=O)(O)O [Derivative B, (1R)-1-(L-alanyl-L-alanylamino)-ethylphosphonic acid] |  |  |  | 0.2 | 0.03 | 
6 | C[C@H](N)C(=O)N[C@@H](C)C(=O)N[C@@H](C)C(=O)N[C@@H](C)P(=O)(O)O [Derivative C, (1R)-1-(L-alanyl-L-alanyl-L-alanylamino)-ethylphosphonic acid] |  |  |  | 0.1 | 0.05 | 
7 | C[C@H](N)C(=O)N[C@@H](C)C(=O)N[C@@H](C)C(=O)N[C@@H](C)C(=O)N[C@@H](C)P(=O)(O)O [Derivative D, (1R)-1-(L-alanyl-L-alanyl-L-alanyl-L-alanylamino)-ethylphosphonic acid] (HELM PEPTIDE1{A.A.A.A.[C[C@H](N[*:1])P(=O)(O)O]}$$$$V2.0) |  |  |  | 0.2 | 0.10 | 
8 | C[C@H](NC(=O)[C@@H](N)Cc1ccccc1)P(=O)(O)O [Derivative E, (1R)-1-(L-phenylalanylamino)-ethylphosphonic acid] |  |  |  | 0.48 | 0.13 | 
9 | CC(C)[C@H](N)C(=O)N[C@@H](C)P(=O)(O)O [Derivative F, (1R)-1-(L-valylamino)-ethylphosphonic acid] |  |  |  | 0.60 | 0.13 | 
10 | CC(C)C[C@H](N)C(=O)N[C@@H](C)P(=O)(O)O [Derivative G, (1R)-1-(L-leucylamino)-ethylphosphonic acid] |  |  |  | 0.27 | 0.12 | 
